Assay: Human HepG2 cell viability assay in 384 well format
Assay type: toxicity, cell-based
Set-up: dose 125 nL, time 70.5 hour; concentration not given beside the values
Conditions: HepG2 cells, read-out: Inhibition

| Structure (SMILES) | cytotoxicity at 70.5 h [%] |
| --- | --- |
| Cn1ncc(N2CCN(Cc3ccc(S(C)(=O)=O)cc3)CC2)cc1=O | -5.42 |
| COCCn1ccnc1C1CCN(C(=O)C(O)c2ccc(F)cc2)CC1 (configuration not stated) | -5.34 |
| Cn1cnnc1S(=O)(=O)C1CCN(S(=O)(=O)c2ccccc2F)CC1 | -9.91 |
| CCOC(=O)C1CCN(c2nccc(-n3nc(C)cc3C)n2)CC1 | -3.45 |
| Cn1cc(-c2cc(C(F)F)n3nc(CCC(=O)O)nc3n2)cn1 | -4.35 |
| Cc1cccc(N2CCOCC3(C2)CN(c2ccoc2)C(=O)CO3)n1 (configuration not stated) | 6.55 |
| CN(C)CCn1nc(C2CCN(Cc3ccccc3)C2)c2cccnc21 (configuration not stated) | 31.8 |
| Cc1nc(C)c(CC(=O)NCc2ccc(F)cc2)s1 | -11.4 |
| CS(=O)(=O)CCNC(=O)Nc1ccc(Cl)cc1-n1cccc1 | 23.7 |
| CS(=O)(=O)N1CCCCCC1C1CCN(c2ncccc2C#N)CC1 (configuration not stated) | -0.285 |
| Cc1nc2c(c(NC(C)C)n1)CCN(C(=O)CCO)CC2 | -14.4 |
| O[C@@H]1C[C@H]2CN(CC3CCCCC3)[C@H](Cc3ccccc3)CN2C1 | 24.4 |
| O=C1CCN(C(=O)c2ncoc2-c2ccco2)c2ncccc2N1 | -9.5 |
| Cc1nccn1CCNC(=O)C1(C)CC(c2ccccc2)=NO1 (configuration not stated) | -3.18 |
| Cn1cc(C[C@H]2[C@@H](O)CCN2C(=O)C2CCC2)cn1 | -1.34 |
| N#CCCN(Cc1ccco1)C(=O)C1CCCc2ccccc21 (configuration not stated) | -6.61 |
| CCOCC(O)CN1CCN(C(=O)c2ccc(N(C)C)nn2)CC1 (configuration not stated) | 24.3 |
| CCCC(=O)NC(C)(C)Cc1ccccc1OC | -12.8 |
| Cn1cccc(NC(=O)NCCOCc2ccccc2)c1=O | -13.2 |
| CCn1cc(CN2CCCN(C(=O)c3ccccc3OC)CC2)cn1 | -15.6 |
| CNC[C@H]1CC[C@H](c2cc(CN(C)S(=O)(=O)N(C)C)n(C)n2)CC1 | -3.44 |
| COc1cc2nc(NCc3ccc(C)nc3)nc(N)c2cc1OC | -5.25 |
| COc1ccc(CNC2CCN(c3ccccc3)C2)c(OC)c1OC (configuration not stated) | 19.7 |

| Structure (SMILES) | cytotoxicity at 70.5 h [%] |
| --- | --- |
| COCCN(CC1CCCO1)C(=O)CCNC(=O)c1ccccc1F (configuration not stated) | -13.6 |
| Cc1nn(C)c(Cl)c1C1CCCN1C(=O)c1ccc2c(c1)OCO2 (configuration not stated) | -16.9 |
| CC(=O)Nc1ccc2c(c1)CN(C(=O)c1ccco1)CC2 | 18.4 |
| COCCN(Cc1cnn(C)c1)CC1CCOC1 (configuration not stated) | -6.85 |
| Cc1cc(CSCc2csc(CS(C)(=O)=O)n2)no1 | 2 |
| OC1(CN2CCCC2)CCCN(Cc2cnc(-c3ccco3)nc2)C1 (configuration not stated) | 2.98 |
| CC(=O)N1CCC2(CCN(C(=O)c3ccc(C)c(C(F)(F)F)c3)CC2)C1 | 37.6 |
| CC(NC1(CNS(C)(=O)=O)CCCC1)c1ccccc1 (configuration not stated) | -16.9 |
| Cc1ccc(-c2cc(C(F)(F)F)nc(N3CCOCC3)n2)s1 | -11.3 |
| Cc1cc(Nc2cnccn2)nc(C2CCCN(CCO)C2)n1 (configuration not stated) | -10.3 |
| O=C(CSCC1CC1)N1CCCC(c2nccn2Cc2cccnc2)C1 (configuration not stated) | -9.29 |
| CCc1n[nH]c(C2CN(C(=O)c3cnn(CC)c3)CCO2)n1 (configuration not stated) | 19.6 |
| CCN1CCN(C[C@@H]2CN(c3ncccc3C(F)(F)F)C[C@@H]2CO)CC1 | -5.49 |
| CNc1cc(CNC(=O)c2cccnc2)nc(-c2ccncc2)n1 | -1.87 |
| Cc1nc(C)c(CC(=O)Nc2nnc(C)s2)c(=O)[nH]1 | 0.383 |
| Cc1nc(NC2CCCC2)cc(C2CCN2C(=O)c2cccnc2)n1 (configuration not stated) | -9.69 |
| Cc1csc(NC(=O)Cn2nc(C)ccc2=O)n1 | -9.42 |
| Cc1cc(CN2CCN(S(C)(=O)=O)CC(C(=O)N(C)C)C2)no1 (configuration not stated) | 0.351 |
| CN(C1CCCCC1)S(=O)(=O)NC1CCN(c2ncccn2)CC1 | -7.52 |
| CNCc1cn(C2CCN(C(=O)NCc3ccco3)CC2)nn1 | -8.5 |
| CCN(CC)Cc1nc2c(o1)CN(C(=O)c1ccc3ncccc3c1)C2 | -4.56 |
| COc1ccccc1OCC(=O)Nc1ncccc1Cl | -0.838 |
| Cc1cc(F)c(S(=O)(=O)N(C)CCn2cccn2)cc1F | -9.11 |

| Structure (SMILES) | cytotoxicity at 70.5 h [%] |
| --- | --- |
| O=C(C1CCOC1)N1CCC(OCc2ccccc2)CC1 (configuration not stated) | -5.49 |
| CC(C)N1CCC(N2CCC(C(=O)N(C)C)CC2)CC1 | 1.65 |
| CN1CCOC(CNCC(=O)NCCc2ccc3c(c2)OCCO3)C1 (configuration not stated) | 4.64 |
| c1ccc2c(c1)nnn2CCCNC1CCOC2(CCOCC2)C1 (configuration not stated) | -5 |
| COc1ccc(F)cc1Cn1nc(C(N)=O)ccc1=O | 6.09 |
| CCNC(=O)[C@@H]1CCCN1C1(C(=O)NC)CCCCC1 | 4.64 |
| O=C(CCc1ccccc1)N1CCCC(c2n[nH]c3nccnc23)C1 (configuration not stated) | -6.72 |
| CN(C)CCOc1cccc(CN2CCCC3(C2)CN(C)C(=O)O3)c1 (configuration not stated) | 26 |
| COCCN(Cc1ccccn1)C(=O)CC1OCCc2ccccc21 (configuration not stated) | -6.98 |
| COCCN1CC[C@@H](O)[C@@H]1Cc1ccccc1 | -16.9 |
| COc1ccccc1Oc1ncccc1CNC(=O)C(C)CN (configuration not stated) | -9.25 |
| CS(=O)(=O)C1(CNCc2cccc(-n3cccn3)c2)CCOCC1 | 12.5 |
| CCc1cc(C(F)(F)F)c2c(C3CCN(C(=O)COC)CC3)noc2n1 | -6.22 |
| CCN1C(=O)[C@]2(CC[C@@H]3CN(S(=O)(=O)CC(C)C)C[C@@H]32)N=C1C | -12.6 |
| CCOC(=O)N(C)C1CCN(Cc2csc(C)n2)CC1 | 2.22 |
| CCc1csc(C2CCCN(C(=O)c3cnc[nH]3)C2)n1 (configuration not stated) | -7.63 |
| Fc1ccc(-c2nnc(CN3CCCC(Cn4cncn4)C3)o2)cc1 (configuration not stated) | -5.49 |
| Cc1nn(C)c2c(=O)n(Cc3ccc(C#N)cc3)nnc12 | -10.1 |
| CC[C@@H](CO)Nc1nccc(-c2cnc3sc(C)cn3c2=O)n1 | 15.2 |
| O=C(C1CCC1)N1CCC(c2ncc3c(n2)CCNC3)CC1 | -6.1 |
| NC(=O)c1cc2c(nc1-c1ccc3c(c1)OCCO3)CCC2 | -9.8 |
| COCCN(C/C=C/c1ccccc1)Cc1ccccn1 | 6.25 |
| Cn1ccnc1CN1CCC(Cn2cc(-c3ccccc3)nn2)CC1 | 3.07 |

| Structure (SMILES) | cytotoxicity at 70.5 h [%] |
| --- | --- |
| O=c1cc(CN2CCCC2)nc2n1CCCN(Cc1ccsc1)C2 | -17.6 |
| Cc1cc(-c2cc3nc(C)c(C)c(NCC4COCCO4)n3n2)no1 (configuration not stated) | -5.97 |
| c1ccc(Cc2noc(CN3CCCC3C3CCCCC3)n2)cc1 (configuration not stated) | 16.5 |
| O=C1OCCN1Cc1ccc(C(F)(F)F)cc1F | -6.21 |
| CCOC(C)C(=O)Nc1ccnn1-c1ccccc1C (configuration not stated) | 7.99 |
| Cc1cc(C(=O)Nc2ccc3c(c2)N(C)CCN(C)C3)on1 | -5.18 |
| O=S(=O)(Nc1cnn(C2CCOCC2)c1)c1ccc(F)c(F)c1 | 1.31 |
| O=C(Nc1ccccc1)N1CC(C(=O)N2CCCC2)C2(CCOCC2)C1 (configuration not stated) | -10.8 |
| CC(=O)N1[C@H](Cn2cncn2)C[C@@H]2CN(c3ccc(C)nn3)CC[C@@H]21 | -6.42 |
| Cc1cc(C(=O)NCc2cccnc2N2CCCC(O)C2)c(C)o1 (configuration not stated) | -8.63 |
| COc1cc(N2C[C@@H]3COC[C@]3(COCc3ccccn3)C2)ncn1 | -4.79 |
| COc1ccc(C2=CCN(C(=O)C3CCN(C)C(=O)C3)CC2)cc1 (configuration not stated) | -8.88 |
| CCC1CC(=O)NCc2nc3sc(C)cn3c21 (configuration not stated) | -4.35 |
| CC(=O)N1CCc2cc(C(=O)O)c(-c3ccsc3)nc2CC1 | -0.0308 |
| CC(=O)N1CCC(c2cncc(N3CCOCC3)n2)CC1 | -8.68 |
| O=C(NCCCn1ccnc1)Nc1ccn(CCc2ccccn2)n1 | -5.67 |
| CN(Cc1ccc2c(c1)OCCO2)C(=O)NCCc1cnn(C)c1 | 6.83 |
| Nc1ncc(-c2ccc(NC(=O)[C@@H]3CCCCN3)cc2)cn1 | 2.01 |
| COCCN1CCCC(O)(CN2CCN(c3ncccc3C)CC2)C1=O (configuration not stated) | -7.68 |
| CN(Cc1ccco1)C(=O)[C@@]12CNC[C@@H]1CN(C1CCCC1)C2 | -23 |
| CCCc1nc(C(C)(C)NC(=O)C2CC(=O)N(CCOC)C2)no1 (configuration not stated) | -10.7 |
| CNC(=O)Cc1noc(-c2cc3c(s2)CCCC3)n1 | -8.17 |
| Cc1nc2ccccc2nc1CN1CCCC(Cn2cncn2)C1 (configuration not stated) | -3.51 |

| Structure (SMILES) | cytotoxicity at 70.5 h [%] |
| --- | --- |
| Cc1ccc(CN(C)C)cc1NC(=O)C1CC1 | -9.96 |
| COC[C@@H]1CC[C@H]2[C@H](CCN2S(=O)(=O)c2ccc(OC)cc2)O1 | -6.4 |
| CCn1cc(CN2CCCN(C(=O)c3sccc3OC)CC2)cn1 | 3.74 |
| CCCS(=O)(=O)N1CCC2(CN(c3cnn(C)c3)C(=O)CN2C)C1 (configuration not stated) | 0.667 |
| Cc1noc(C(C)C)c1C(=O)NCCCOC(C)C | -4.85 |
| CC(O)CN1CCN(C(=O)c2cccc3[nH]ncc23)CC1 (configuration not stated) | -3.67 |
| CN(Cc1ccsc1)C(=O)CN1CCCC(Cn2cncn2)C1 (configuration not stated) | -5.89 |
| c1ccc2nc(NCC3(N4CCOCC4)CCSC3)cnc2c1 (configuration not stated) | 28.5 |
| COc1cccc(Nc2nc(C3CCNCC3)c3sc(C)c(C)n23)c1 | -7.32 |
| CCc1cc(NC(=O)C2CCCN(C(=O)NCC(C)C)C2)[nH]n1 (configuration not stated) | -17.1 |
| Cc1nc(CN2C(=O)CC[C@@H]3[C@H]2CCN3C(=O)C2CCOCC2)cs1 | -7.34 |
| Cc1nc(C2CCCN2C(=O)COCCOc2ccccc2)no1 (configuration not stated) | 8.74 |
| Cn1c(SCC(O)COCc2ccccc2Cl)nnc1C1CC1 (configuration not stated) | -8.57 |
| Cc1nc([C@@H]2C[C@@H]3CCN(C(=O)c4ccnnc4)C[C@H]3O2)sc1C | 5.38 |
| COc1cc(C(=O)NC2COc3ccccc3C2)ccc1OCC(N)=O (configuration not stated) | -9.85 |
| CN(CC(O)C1CC1)C(=O)c1ccc(-c2nc(C3CC3)n[nH]2)cc1 (configuration not stated) | -7.71 |
| CN(C)c1cc(CC(NC(=O)C2CC2)c2ccccc2)nc(C2CC2)n1 (configuration not stated) | 16.9 |
| O=C(c1cc(-n2cccn2)ccc1Cl)N1CCC(N2CCCC2=O)CC1 | -9.31 |
| COc1ccc([C@@H]2NC(=O)N[C@H]3OCCC[C@H]32)cc1 | -4.38 |
| Cc1ccc(CN2CCCC3(CCN(S(=O)(=O)N(C)C)C3)C2)o1 (configuration not stated) | -9.63 |
